Experimental data from patent US8518958B2, “Pyrido [2,3-D] pyrimidines and their use as kinase inhibitors” (Forma Therapeutics, Inc., priority 2006, dated 2013).
pIC50: −log10 of the molar value.

Key:
HT-29 tumor cells = assay: Anti-proliferative activity, SRB assay; format: cell-based, human; conditions: Homo sapiens, HT-29, 72 h, 72 hours exposure, read-out: CELLULAR IC50 HT-29
Outline: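 IC50 derived from % inhibition relative to DMSO controls, measured by sulforhodamine B binding (OD570) after TCA fixation. Cells (3,000-15,000 per well) were seeded a day ahead, then treated with graded compound concentrations for 72 hours.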

B-Raf delta1-415 = B-Raf delta1-415 (Homo sapiens, UniProt P15056); assay: B-Raf kinase inhibition (MAPH filter plate, 33P-ATP, MEK1 substrate); conditions: read-out: Biochemical IC50 B-Raf
Outline: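 IC50 values come from dilution series (top 10 μM) measured by scintillation counting of 33P-labelled MEK1 retained on H3PO4-washed filters. Reactions ran 1 h at room temperature in pH 7.0 Mops buffer with MgCl2, MnCl2 and DTT, using 12.5 μCi/ml [γ-33P]ATP and B-Raf delta1-415 titrated to 50% turnover.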

Chain of B-Raf delta1-415 (P15056 416-766): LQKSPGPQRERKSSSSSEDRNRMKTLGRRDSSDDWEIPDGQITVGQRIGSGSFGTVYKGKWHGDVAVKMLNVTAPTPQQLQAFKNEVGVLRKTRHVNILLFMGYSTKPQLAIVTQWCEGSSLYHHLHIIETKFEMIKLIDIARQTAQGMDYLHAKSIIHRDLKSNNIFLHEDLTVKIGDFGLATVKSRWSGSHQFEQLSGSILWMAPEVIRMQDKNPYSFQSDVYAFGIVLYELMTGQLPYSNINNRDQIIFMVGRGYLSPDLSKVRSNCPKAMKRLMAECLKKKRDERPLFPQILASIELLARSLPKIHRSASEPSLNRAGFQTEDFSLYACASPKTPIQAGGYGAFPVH

Row | SMILES | pIC50 (HT-29 tumor cells) | pIC50 (B-Raf delta1-415)
1 | COn1c(=O)c(-c2c(Cl)cccc2Cl)cc2cnc(Nc3cc(C(=O)NCCN4CCCC4)n(C)c3)nc21 [Compound 94, 6-(2,6-Dichlorophenyl)-8-methoxy-2-(5-(2-pyrrolidinoethyl)aminocarbonyl-1-methyl-pyrrol-3-yl)-amino-pyrido[2,3-d]pyrimidin-7-one] | > 6.00 | > 6.30
2 | COn1c(=O)c(-c2c(Cl)cccc2Cl)cc2cnc(Nc3cccc(CS(=O)(=O)NCCO)c3)nc21 [Compound 156, 6-(2,6-Dichlorophenyl)-2-(3-((2-hydroxyethylamino)sulfonylmethyl)phenyl)-amino-8-methoxy-pyrido[2,3-d]pyrimidin-7-one] | > 6.00 | > 6.30
3 | O=c1c(-c2c(F)cccc2Cl)cc2cnc(Nc3ccc(N4CCOCC4)cc3)nc2n1OCC1CC1 [Compound 129] | > 6.00 | > 7.00
4 | COn1c(=O)c(-c2c(Cl)cccc2Cl)cc2cnc(Nc3ccc(CC(=O)NCCN4CCCC4)cc3)nc21 [Compound 115, 6-(2,6-Dichlorophenyl)-8-methoxy-2-(4-(2-pyrrolidinoethylaminocarbon-ylmethyl)phenyl)-amino-pyrido[2,3-d]pyrimidin-7-one] | > 6.00 | > 6.30
5 | O=c1c(-c2c(F)cccc2Cl)cc2cnc(Nc3ccc(N4CCNCC4)cc3)nc2n1OCC1CCOCC1 [Compound 215] | > 6.00 | > 7.00
6 | Cn1cc(Nc2ncc3cc(-c4c(Cl)cccc4Cl)c(=O)n(OC[C@@H](O)CO)c3n2)cc1C(=O)NCCN1CCCC1 [Compound 103, 6-(2,6-Dichlorophenyl)-8-(2-(S)-2,3-dihydroxypropyl)oxy-2-(5-(2-pyrrolidinoethyl)aminocarbonyl-1-methyl-pyrrol-3-yl)-amino-pyrido[2,3-d]pyrimidin-7-one] | > 6.00 | > 6.30
7 | O=c1c(-c2c(F)cccc2Cl)cc2cnc(Nc3ccc(N4CCOCC4)cc3)nc2n1OCC1CCC1 [Compound 172] | > 6.00 | > 6.30
8 | COn1c(=O)c(-c2c(Cl)cccc2Cl)cc2cnc(Nc3cccc(S(=O)(=O)NCCO)c3)nc21 [Compound 126, 6-(2,6-Dichlorophenyl)-2-(3-(2-hydroxyethyl)aminosulfonyl-phenyl)-amino-8-methoxy-pyrido[2,3-d]pyrimidin-7-one] | > 6.00 | > 7.00
9 | COn1c(=O)c(-c2c(Cl)cccc2Cl)cc2cnc(Nc3nncs3)nc21 [Compound 90, 6-(2,6-Dichlorophenyl)-8-methoxy-2-(1-thia-3,4-diazol-2-yl)-amino-pyrido[2,3-d]pyrimidin-7-one] | > 5.00 | > 6.30
10 | COn1c(=O)c(-c2c(Cl)cccc2Cl)cc2cnc(Nc3ccc(CN4CCC4)cc3)nc21 [Compound 201, 2-(4-(1-azacyclobutyl)methylphenyl)-amino-6-(2,6-dichlorophenyl)-8-methoxy-pyrido[2,3-d]pyrimidin-7-one] | > 6.00 | > 6.30
11 | COn1c(=O)c(-c2c(F)cccc2Cl)cc2cnc(Nc3ccc(N4CCOCC4)cc3)nc21 [Compound 136] | > 6.00 | > 7.00
12 | COn1c(=O)c(-c2c(Cl)cccc2Cl)cc2cnc(Nc3ccc(C(C)=O)cc3)nc21 [Compound 192, 2-(4-Acetylphenyl)amino-6-(2,6-dichlorophenyl)-8-methoxy-pyrido[2,3-d]pyrimidin-7-one] | > 6.00 | > 6.30
13 | COn1c(=O)c(-c2c(Cl)cccc2Cl)cc2cnc(Nc3ccncn3)nc21 [Compound 135, 6-(2,6-Dichlorophenyl)-8-methoxy-2-(pyrimidin-4-yl)-amino-pyrido[2,3-d]pyrimidin-7-one] | > 5.00 | > 6.30
14 | COn1c(=O)c(-c2c(Cl)cccc2Cl)cc2cnc(Nc3ccc(N4CCOCC4)cc3)nc21 [Compound 98, 6-(2,6-Dichlorophenyl)-8-methoxy-2-(4-morpholinophenyl)-amino-pyrido[2,3-d]pyrimidin-7-one] | > 6.00 | > 7.00
15 | COn1c(=O)c(-c2c(F)cccc2Cl)cc2cnc(Nc3cc(C(=O)N(C)CCOC(=O)c4cccnc4)n(C)c3)nc21 [Compound 220] | > 6.00 | > 6.30
16 | COn1c(=O)c(-c2c(Cl)cccc2Cl)cc2cnc(Nc3ccc(N4CCN(C(C)C)CC4)cc3)nc21 [Compound 187] | > 6.00 | > 6.30
17 | COn1c(=O)c(-c2c(Cl)cccc2Cl)cc2cnc(Nc3cccc(S(C)(=N)=O)c3)nc21 (stereo not shown) [Compound 161, 6-(2,6-Dichlorophenyl)-8-methoxy-2-(3-methyliminosulfonylphenyl)-amino-pyrido[2,3-d]pyrimidin-7-one] | > 6.00 | > 7.00
18 | O=c1c(-c2c(F)cccc2Cl)cc2cnc(Nc3ccc(N4CCOCC4)cc3)nc2n1OCC1CCOCC1 [Compound 143] | > 6.00 | > 7.00

Row | SMILES | pIC50 (HT-29 tumor cells) | pIC50 (B-Raf delta1-415)
19 | O=c1c(-c2c(Cl)cccc2Cl)cc2cnc(Nc3ccc(N4CCNCC4)cc3)nc2n1OCC1CCOCC1 [Compound 202, 6-(2,6-Dichlorophenyl)-8-(tetrahydropyran-4-ylmethyl)oxy-2-(4-piperazinophenyl)-amino-pyrido[2,3-d]pyrimidin-7-one] | > 6.00 | > 6.30
20 | COn1c(=O)c(-c2c(C)cccc2C)cc2cnc(Nc3cc(C(=O)NCCN4CCCC4)n(C)c3)nc21 [Compound 87, 6-(2,6-Dimethylphenyl)-8-methoxy-2-(5-(2-pyrrolidinoethyl)aminocarbonyl-1-methyl-pyrrol-3-yl)-amino-pyrido[2,3-d]pyrimidin-7-one] | > 6.00 | > 6.30
21 | CC(C)On1c(=O)c(-c2ccccc2Cl)cc2cnc(Nc3ccccc3)nc21 [Compound 65] | < 5.00 | < 5.00
22 | O=c1c(-c2c(F)cccc2Cl)cc2cnc(Nc3ccccc3)nc2n1OCc1cccnc1 [Compound 153, 6-(2-Chloro-6-fluorophenyl)-2-phenylamino-8-(pyrid-3-ylmethyl)oxy-pyrido[2,3-d]pyrimidin-7-one] | > 6.00 | > 6.30
23 | COn1c(=O)c(-c2c(Cl)cccc2Cl)cc2cnc(Nc3ccc(Cn4cccn4)cc3)nc21 [Compound 124, 6-(2,6-dichlorophenyl)-8-methoxy-2-(4-(pyrazol-1-ylmethyl)phenyl)-amino-pyrido[2,3-d]pyrimidin-7-one] | > 6.00 | > 6.30
24 | COn1c(=O)c(-c2c(Cl)cccc2Cl)cc2cnc(Nc3cccc(NS(C)(=O)=O)c3)nc21 [Compound 119, 6-(2,6-Dichlorophenyl)-8-methoxy-2-(3-methylsulfonylaminophenyl)-amino-pyrido[2,3-d]pyrimidin-7-one] | > 6.00 | > 7.00
25 | COn1c(=O)c(-c2c(Cl)cccc2Cl)cc2cnc(Nc3ccc(C#N)cc3)nc21 [Compound 86, 2-(4-Cyanophenyl)-amino-6-(2,6-dichlorophenyl)-8-methoxy-pyrido[2,3-d]pyrimidin-7-one] | > 6.00 | > 6.00
26 | COn1c(=O)c(-c2c(Cl)cccc2Cl)cc2cnc(Nc3ccccc3)nc21 [Compound 174, 6-(2,6-Dichlorophenyl)-8-methoxy-2-phenylamino-pyrido[2,3-d]pyrimidin-7-one] | > 6.00 | > 6.00
27 | COn1c(=O)c(-c2c(Cl)cccc2Cl)cc2cnc(Nc3ccc(CNS(C)(=O)=O)cc3)nc21 [Compound 120, 6-(2,6-Dichlorophenyl)-8-methoxy-2-(4-methylsulfonylaminomethyl-phenyl)-amino-pyrido[2,3-d]pyrimidin-7-one] | > 6.00 | > 7.00
28 | COn1c(=O)c(-c2c(Cl)cccc2Cl)cc2cnc(Nc3cccc(O)c3)nc21 [Compound 219, 6-(2,6-Dichlorophenyl)-2-(3-hydroxyphenyl)-amino-8-methoxy-pyrido[2,3-d]pyrimidin-7-one] | > 5.00 | > 6.30
29 | CCN(CC)S(=O)(=O)c1cccc(Nc2ncc3cc(-c4c(Cl)cccc4Cl)c(=O)n(OC)c3n2)c1 [Compound 123, 6-(2,6-Dichlorophenyl)-2-(3-diethylaminosulfonylphenyl)-amino-8-methoxy-pyrido[2,3-d]pyrimidin-7-one] | > 5.00 | < 6.00
30 | CCN1CCN(c2ccc(Nc3ncc4cc(-c5c(Cl)cccc5Cl)c(=O)n(OC)c4n3)cc2)CC1 [Compound 189, 6-(2,6-Dichlorophenyl)-2-(4-(4-ethylpiperazino)phenyl)-amino-8-methoxy-pyrido[2,3-d]pyrimidin-7-one] | > 6.00 | > 6.30
31 | COn1c(=O)c(-c2c(F)cccc2Cl)cc2cnc(Nc3ccc(N4CCNCC4)c(Cl)c3)nc21 [Compound 199, 6-(2-Chloro-6-fluorophenyl)-2-(3-chloro-4-piperazinophenyl)-amino-8-methoxy-pyrido[2,3-d]pyrimidin-7-one] | > 6.00 | > 7.00
32 | COn1c(=O)c(-c2c(Cl)cccc2Cl)cc2cnc(Nc3ccc(Cn4cncn4)cc3)nc21 [Compound 104, 6-(2,6-Dichlorophenyl)-8-methoxy-2-(4-(1,2,4-triazol-1-yl)methylphenyl)-amino-pyrido[2,3-d]pyrimidin-7-one] | > 6.00 | > 6.30
33 | COn1c(=O)c(-c2c(C)cccc2C)cc2cnc(Nc3cccnc3)nc21 [Compound 114, 6-(2,6-Dimethylphenyl)-8-methoxy-2-pyrid-3-ylamino-pyrido[2,3-d]pyrimidin-7-one] | > 5.00 | > 7.00
34 | O=c1ccc2cnc(Nc3ccc(N4CCOCC4)cc3)nc2n1OC1CCCC1 [Compound 226] | > 5.00 | < 6.00
35 | COn1c(=O)c(-c2c(Cl)cccc2Cl)cc2cnc(Nc3ccc(CO)cc3)nc21 [Compound 144, 6-(2,6-Dichlorophenyl)-2-(4-hydroxymethylphenyl)-amino-8-methoxy-pyrido[2,3-d]pyrimidin-7-one] | > 5.00 | > 7.00
